The values below come from paper PMC3763632, “Radiosynthesis and Radiotracer Properties of a 7-(2-[^18F]Fluoroethoxy)-6-methoxypyrrolidinylquinazoline for Imaging of Phosphodiesterase 10A with PET” (Pharmaceuticals, 2012).

The data set in a line: Radioligand stability in vivo (metabolism in brain, plasma, urine). The settings on record: mice. The arrangement: species or system CD-1 mice. As for the experimental part: The metabolic fate of [^18F]IV was investigated in brain, plasma and urine samples of CD1-mice at 30 and 60 min p.i. Proteins were precipitated with acetonitrile and extraction efficiencies of 96.4% for brain homogenate, 90.2% for plasma and 89.4% for urine were obtained, indicating sufficient recovery rates. The supernatants of each material were analyzed by radio-TLC and analytical radio-HPLC, whereof two representative chromatograms are given in Figure 4.
A single lipophilic metabolite was detected representing only 4.2% of total radioactivity at 60 min p.i. Therefore a major impairment of the imaging properties of [^18F]IV in vivo should not be expected. The same radiometabolite was detected in plasma with 23.5% and 22.0% of the total radioactivity at 30 and 60 min p.i., while the parent radiotracer [^18F]IV accounted for 69.5% and 70.1%, respectively.
In urine the metabolic profile is distinctly different. While the non-metabolized [^18F]IV and the single plasma- and brain-related radiometabolite accounted for only ~1% of the total radioactivity in urine, further radiometabolites were detected. The main three of them represent 11%, 12% and 44% of the total radioactivity. In contrast to brain and plasma samples, in urine free [^18F]fluoride could be detected, although at a low level of only ~5% of total radioactivity.
After injection via the tail vein of ~150 MBq of [^18F]IV in […] isotonic solution, mice were sacrificed at 30 or 60 min p.i. (n = 2 per time). Urine and blood samples were obtained, and whole brains were isolated and homogenized in 50 mM TRIS-HCl, pH 7.4/4 °C, in a borosilicate glass cylinder by 10 strokes of a PTFE plunge at a speed of 1,000 rpm using a Potter S Homogenizer (B. Braun Melsungen AG, Germany). Plasma samples were obtained by centrifugation of blood at 2,000 g and 4 °C for 10 min. Extractions of brain homogenate, plasma and urine samples were done by treatment with ice-old acetonitrile (1:5 v/v; 2 min vortex mixing, Vortex-Genie 2, Scientific Industries Inc., NY, USA; 10 min incubation on ice) and centrifugation (6,000 rpm, 4 °C, 5 min; EBA 12R, Andreas Hettich GmbH & Co. KG, Tuttlingen, Germany). The supernatants were stored separately. Sediments of brain and plasma samples were re-suspended in 500 μL ice-cold acetonitrile and extraction was repeated. Supernatants of each specimen were combined and slowly evaporated at 70 °C under nitrogen stream. […]

Take `COc1cc2c(N3CC[C@@H](Oc4cnc5ccccc5n4)C3)ncnc2cc1OCC[18F]` [[^18F]IV, (R)-7-(2-[^18F]Fluoroethoxy)-6-methoxy-4-(3-(quinoxalin-2-yloxy)pyrrolidin-1-yl)quinazoline]: the “parent [18F]IV, share of total radioactivity” value reads like this: (brain, 30 min p.i.) 94.3%; (brain, 60 min p.i.) 93.1%; (plasma, 30 min p.i.) 69.5%; (plasma, 60 min p.i.) 70.1%.
